This is an account of results in paper PMC10372009, “Molecular basis of GDF15 induction and suppression by drugs in cardiomyocytes and cancer cells toward precision medicine” (Scientific Reports, 2023).

In one test the test system is BRD4. Briefly: ChIP-seq of BRD4 bound to putative enhancers near the GDF15 gene locus in AML cell lines. Type of test: cell-based. As to conditions: 1 to 1000 nM, reanalysis of previously published ChIP-seq data ref 26. The text has this: In 50% of NCI-60, we thereby found a correlation between drug-induced GDF15 and BRD4 expression. […]
Test [1] relates to GDF15. Briefly: Basal GDF15 gene expression in 21 lung and colorectal cancer cell lines treated with BI 894999 (RNA sequencing, qPCR). As to conditions: of 21 treated lung and colorectal cancer cell lines; 10, 35 or 100 nM, 4 h or 24 h. It is filed as cell-based, human. The text has this:
(§1) GDF15 overexpression can be both chemotherapy- and cancer-driven. Various cancer cell types were reported to overexpress GDF15, thereby exacerbating the development of cachexia. Whilst a personalized selection of chemotherapeutic agents has the potential to mitigate chemotherapy-driven GDF15 overexpression in cancer cells, it leaves basal overexpression of GDF15 unaffected. […] To test this further, we analyzed our own gene expression data of 21 lung and colorectal cancer cell lines treated with the BET inhibitor BI 894999[26]. […] Additionally, we analyzed fold-changes of GDF11 which is well known for its rejuvenating effect but also associated with cachexia, partially through upregulation of GDF15[19]. […] The more GDF15 expression was reduced, the more GDF11 expression tended to get increased upon BET inhibition in the respective cell lines (Fig. 5A).
(§2) Figure 5 GDF15 gene suppression by BET inhibitors. Effect of BET inhibition on basal GDF15 and GDF11 expression in 21 cancer cell lines and on doxorubicin-induced GDF15 overexpression in hiPSC-CMs. (A) Treatment of cancer cell lines with the BET Inhibitor BI 894999 (Supplementary Table S3). Fold-change of relative gene expression. Normalized gene expression analysis performed using RNA sequencing and qPCR, 95% confidence interval. […]

In the next test the test system is GDF11. Briefly: GDF11 gene expression in 21 lung and colorectal cancer cell lines treated with BI 894999. Type of test: cell-based, human. As to conditions: of 21 treated cell lines; 10, 35 or 100 nM, 4 h or 24 h.
Text: as §1, §2

The test system of test [2] is GDF15. The test can be described thus: Doxorubicin-induced GDF15 mRNA expression in hiPSC-CMs, successive treatment with BET inhibitors (qPCR). As to conditions: BET inhibitor given subsequently to doxorubicin. Type of test: cell-based, human. The text has this: (§3) Host cells are known to contribute to elevated GDF15 levels in cachexia patients when exposed to drug toxicity. […] We plotted GDF15 fold-changes against the respective reported half maximal inhibitory concentrations (IC50) of each BET inhibitor for BRD2, BRD3 and BRD4, whenever available. GDF15 fold-change thereby meant the ratio of GDF15 expression induced by doxorubicin only and doxorubicin combined with BET inhibitor normalized to cell viability.
(§4) Cardiotoxic drug (SCREEN-WELL® Cardiotoxicity library, BML-2850, ENZO) library was prepared by serial dilution of 10 mM stocks in DMSO to 9 different concentrations ranging from 0.001 to 10 mM, which were further diluted into assay plates to final concentrations ranging from 0.001 to 10 µM. […] The final concentration of DMSO for hiPSC-CMs assay was 0.1%. To investigate the influence of BET inhibitor treatment on doxorubicin induced GDF15 mRNA expression, hiPSC-CMs were pre-treated with 20 nM or 200 nM doxorubicin for 48 h and kept in medium without compound for 24 h before 24 h treatment with either 100 nM BI 894999 or 500 nM OTX015. […] Cancer cell lines were treated with 10 nM, 35 nM or 100 nM of BI 894999 for 4 h or 24 h (Supplementary Table S3).
(§5) For GDF15 mRNA quantification, total RNA was isolated from the cells using an RNeasy kit (Qiagen, 74106) to synthesize cDNA using a Taqman Reverse Transcription kit (Applied Biosystems, N8080234). Quantitative real-time PCR analysis was performed using QuantiNova SYBR Green PCR Kit (Qiagen, 208052) on a CFX96 Real-Time System (Bio-Rad) under the following amplification conditions: 95 °C for 2 min followed by 40 cycles of 95 °C for 5 s and 60 °C for 10 s. The primer sequences are GDF15-F: 5′-[…]-3′, GDF15-R: 5′-[…]-3′, ACTB-F: 5′-[…]-3′ and ACTB-R: 5′-[…]-3′. PCR data were analyzed using a modified relative expression software tool (REST) and the expression level of GDF15 gene was normalized to that of β-actin.

In the next test the test system is cancer-driven cachexia. Also noted: method as in PMID 29167426. The note with it: mice; cited from earlier work.
For test [3], the system named is GDF15. Briefly: Doxorubicin-induced GDF15 secretion in hiPSC-CMs, simultaneous treatment with BET inhibitors (ELISA). Type of test: cell-based, human. As to conditions: simultaneous 100 nM doxorubicin and 0.1 to 1000 nM BET inhibitor, 48 h.
Text: as §3, §4
as §5, with “β-actin. For secreted GDF15 protein quantification, cell culture medium was collected after drug treatment and stored at − 20 °C until ELISA was performed using Human GDF-15 ELISA Kit (Abcam, ab155432) according to the manufacturer’s instruction. Resulting GDF15 concentrations were normalized to non-treated control and respective relative cell viability.” for “β-actin.”
Supplementary Figure S6. (A) Fold-change of GDF15 secretion by hiPSC-CMs after simultaneous
treatment with doxorubicin and seven BET Inhibitors for 48 h. Normalized to cell viability and non-treated […]

As to `CNc1nc(-c2nc3ccc(N4CCN(C)CC4)cc3n2Cc2ccccc2)cn2c(C)nnc12` [BI 894999], the “BRD4 bound to putative enhancers in close vicinity to the GDF15 gene locus” value in the test on BRD4 is “reduction of BRD4 bound to putative enhancers”. In the test with GDF15 [1], the “number of cell lines with significantly reduced GDF15 expression” value turned out to be 9. For the same compound, the “number of cell lines with increased GDF11 expression” value in the test with GDF11 stood at 19. Further, the “effect on doxorubicin-induced GDF15 overexpression (mRNA)” value with GDF15 [2] is “suppressed”.
On to `Cc1sc2c(c1C)C(c1ccc(Cl)cc1)=N[C@@H](CC(=O)OC(C)(C)C)c1nnc(C)n1-2` [JQ1], for which the “effect on cancer-driven cachexia” value in the test with cancer-driven cachexia is reported as “counteract cancer-driven cachexia”. Moreover, in the test with GDF15 [3], the “effect on doxorubicin-induced GDF15 overexpression (secretion)” value is given as “suppressed”.
